In US20140107109A1, “AMINO-DIHYDROTHIAZINE AND AMINO-DIOXIDO DIHYDROTHIAZINE COMPOUNDS AS BETA-SECRETASE ANTAGONISTS AND METHODS OF USE” (Amgen Inc., priority 2012, published 2014):

How the values were obtained:
Cathepsin D (Cat D) = target: T1, Cathepsin D (Cat D) (Homo sapiens, UniProt P07339); test: In vitro enzymatic Cathepsin D (Cat D) FRET assay; type: biochemical; details: read-out: CatD IC50
T1 construct: Recombinant Cat D was expressed in CHO cells; made in house; host or cells: CHO cells
T1 sequence (P07339 65-412, species assumed): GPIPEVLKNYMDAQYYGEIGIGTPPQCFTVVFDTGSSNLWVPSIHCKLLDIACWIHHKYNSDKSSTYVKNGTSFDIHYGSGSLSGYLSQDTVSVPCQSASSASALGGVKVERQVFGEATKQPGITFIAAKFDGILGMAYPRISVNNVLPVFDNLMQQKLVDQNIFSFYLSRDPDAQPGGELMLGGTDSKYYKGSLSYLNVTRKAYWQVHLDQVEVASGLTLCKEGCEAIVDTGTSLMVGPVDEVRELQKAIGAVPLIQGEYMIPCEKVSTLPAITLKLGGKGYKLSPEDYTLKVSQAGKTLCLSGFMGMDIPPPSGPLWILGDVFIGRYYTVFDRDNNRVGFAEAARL
How it was run: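 Recombinant Cat D expressed in CHO cells, used at 9 nM and pre-incubated one hour with serially diluted inhibitor in DMSO. Peptide substrate carries a fluorophore and quencher flanking the cleavage site; reaction stopped with Tris buffer raising pH to neutrality, then fluorescence read.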

[1] = system: Aβ40 in conditioned medium of cells stably expressing Amyloid Precursor Protein (APP); test: In vitro BACE cell-based assay (HEK cell assay), Aβ40 sandwich ELISA; details: Homo sapiens, HEK293; Aβ40, 24 h incubation
How it was run: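 APP-stably expressing cells (40K/well, grown 24 h in DMEM/10% FBS) were treated 24 h with compounds in 10-point dose response starting at 100 μM or 10 μM, 0.1% DMSO final. Secreted Aβ40 was measured by sandwich ELISA (pAb40 capture, biotinylated 6E10 detection, europium time-resolved fluorescence); IC50 from percent inhibition.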

[2] = target: Beta Secretase enzyme (BACE1) (Homo sapiens, UniProt P56817); test: In vitro enzymatic BACE FRET assay; type: biochemical; details: read-out: BACE1 FRET assay IC50
Beta Secretase enzyme (BACE1), sequence (P56817 46-501): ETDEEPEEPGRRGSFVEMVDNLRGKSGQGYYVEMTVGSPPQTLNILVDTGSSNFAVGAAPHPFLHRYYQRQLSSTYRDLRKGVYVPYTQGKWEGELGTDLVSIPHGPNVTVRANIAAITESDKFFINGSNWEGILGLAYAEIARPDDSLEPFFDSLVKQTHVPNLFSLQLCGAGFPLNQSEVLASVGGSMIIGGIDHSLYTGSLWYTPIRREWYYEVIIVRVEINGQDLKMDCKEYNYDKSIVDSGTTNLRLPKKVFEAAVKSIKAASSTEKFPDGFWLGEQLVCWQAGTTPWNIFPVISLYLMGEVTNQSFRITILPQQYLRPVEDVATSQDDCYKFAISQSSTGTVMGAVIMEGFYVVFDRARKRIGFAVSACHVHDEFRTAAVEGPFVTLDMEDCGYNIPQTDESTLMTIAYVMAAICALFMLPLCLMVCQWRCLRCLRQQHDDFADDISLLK
How it was run: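 BACE1 cleavage of a 50 nM fluorophore/quencher peptide FRET substrate ran for one hour in 0.05 M acetate pH 4.2, 10% DMSO, 100 uM genapol. Tris buffer raised pH to neutrality to stop the reaction before fluorescence was read (excitation 488 nm, […]).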

Row | IC50 (Cathepsin D (Cat D)) [nM] | IC50 [1] [nM] | IC50 [2] [nM] | Structure (SMILES)
1 | > 400000 | 102 | 13.7 | COc1cnc2c(Nc3ccc(F)c([C@]4(C)CS(=O)(=O)[C@@](C)(F)C(N)=N4)c3)nccc2c1 [Example 74, (3R,6R)-5-Amino-6-fluoro-3-(2-fluorophenyl-5-((3-methoxy-1,7-naphthyridin-8-yl)amino)phenyl)-3,6-dimethyl-3,6-dihydro-2H-1,4-thiazine 1,1-dioxide]
2 | 47600 | 212 | 11.4 | COc1cnc2c(Nc3ccc(F)c([C@]4(C)CS(=O)(=O)C(C)(C)C(N)=N4)c3)cccc2n1 [Example 75, (R)-5-Amino-3-(2-fluoro-5-((2-methoxyquinoxalin-5-yl)amino)phenyl)-3,6,6-trimethyl-3,6-dihydro-2H-1,4-thiazine 1,1-dioxide]
3 | > 44000 | 3.9 | 2 | CC1(C)C(N)=N[C@](C)(c2cc(Nc3ncc(F)c4cc(C#N)cnc34)ccc2F)CS1(=O)=O [Example 76, (R)-8-((3-(5-Amino-3,6,6-trimethyl-1,1-dioxido-3,6-dihydro-2H-1,4-thiazin-3-yl)-4-fluorophenyl)amino)-5-fluoro-1,7-naphthyridine-3-carbonitrile]
4 | 45600 | 94.4 | 13.8 | CC1(C)C(N)=N[C@@](C)(c2cc(Nc3noc4cc(Cl)cnc34)ccc2F)CS1(=O)=O [Example 78, (S)-5-Amino-3-(5-((6-chloroisoxazolo[4,5-b]pyridin-3-yl)amino)-2-fluorophenyl)-3,6,6-trimethyl-3,6-dihydro-2H-1,4-thiazine 1,1-dioxide]
5 | 33700 | 4940 | 2500 | CC1(C)C(N)=N[C@](C)(c2cc(Sc3cccc4ccccc34)ccc2F)CS1(=O)=O [Example 79, (R)-5-Amino-3-(2-fluoro-5-(naphthalen-1-ylthio)phenyl)-3,6,6-trimethyl-3,6-dihydro-2H-1,4-thiazine 1,1-dioxide]
6 | > 400000 | 12.5 | 7.5 | COc1cnc(C(=O)Nc2ccc(F)c([C@]3(C)CS(=O)(=O)C(C)C(N)=N3)c2)cn1 (stereo partly drawn) [Example 82, N-(3-((3R)-5-Amino-3,6-dimethyl-1,1-dioxido-3,6-dihydro-2H-1,4-thiazin-3-yl)-4-fluorophenyl)-5-methoxypyrazine-2-carboxamide]
7 | 283000 | 57.5 | 23.4 | COc1cnc2c(Nc3ccc(F)c([C@]4(C)CS(=O)(=O)C5(CCCC5)C(N)=N4)c3)nccc2c1 [Example 84, (R)-10-Amino-8-(2-fluoro-5-((3-methoxy-1,7-naphthyridin-8-yl)amino)phenyl)-8-methyl-6-thia-9-azaspiro[4.5]dec-9-ene 6,6-dioxide]
8 | 160000 | 8.2 | 13.6 | COc1cnc2c(Nc3ccc(F)c([C@]4(C)CS(=O)(=O)C5(CC5)C(N)=N4)c3)nccc2c1 [Example 86, (R)-8-Amino-6-(2-fluoro-5-((3-methoxy-1,7-naphthyridin-8-yl)amino)phenyl)-6-methyl-4-thia-7-azaspiro[2.5]oct-7-ene 4,4-dioxide]
9 | 58700 | 6020 | 1800 | CC1(C)C(N)=N[C@](C)(c2cc(Oc3ccc(C#N)cc3)ccc2F)CS1(=O)=O [Example 96, (R)-4-(3-(5-amino-3,6,6-trimethyl-1,1-dioxido-3,6-dihydro-2H-1,4-thiazin-3-yl)-4-fluorophenoxy)benzonitrile]

Row | Structure (SMILES) | IC50 (Cathepsin D (Cat D)) [nM] | IC50 [1] [nM] | IC50 [2] [nM]
10 | CC1(C)C(N)=N[C@](C)(c2cc(Nc3csc4cc(C#N)cnc34)ccc2F)CS1(=O)=O [Example 73, (R)-3-((3-(5-Amino-3,6,6-trimethyl-1,1-dioxido-3,6-dihydro-2H-1,4-thiazin-3-yl)-4-fluorophenyl)amino)thieno[3,2-b]pyridine-6-carbonitrile] | 27300 | 1.6 | 2
